Legend:
Assay type in all cases: functional
SK-MEL-28 = assay: Growth inhibition of human SK-MEL-28 cells incubated for 48 hrs by sulforhodamine B assay; conditions: SK-MEL-28, 48 h
Hs-578T = assay: Growth inhibition of human Hs 578T cells assessed as cell growth at 10^-6 M incubated for 48 hrs by sulforhodamine B assay relative to control; conditions: read-out: Activity
NCI-H226 [1] = assay: Growth inhibition of human NCI-H226 cells assessed as cell growth at 10^-7 M incubated for 48 hrs by sulforhodamine B assay relative to control; conditions: NCI-H226, 48 h, read-out: Activity
HL-60 = assay: Induction of apoptosis in human HL60 cells assessed as necrotic cells by propidium iodide/Annexin V staining based flow cytometry (reference value: 0.34%)
MDA-MB-231 = assay: Growth inhibition of human MDA-MB-231 cells assessed as cell growth at 10^-7 M incubated for 48 hrs by sulforhodamine B assay relative to control; conditions: MDA-MB-231, 48 h, read-out: Activity
SNB-19 = assay: Growth inhibition of human SNB19 cells assessed as cell growth at 10^-8 M incubated for 48 hrs by sulforhodamine B assay relative to control; conditions: SNB-19, 48 h, read-out: Activity
OVCAR-3 = assay: Growth inhibition of human OVCAR3 cells assessed as cell growth at 10^-5 M incubated for 48 hrs by sulforhodamine B assay relative to control; conditions: OVCAR-3, 48 h, read-out: Activity
HOP-62 = assay: Growth inhibition of human HOP62 cells assessed as cell growth at 10^-7 M incubated for 48 hrs by sulforhodamine B assay relative to control; conditions: HOP-62, 48 h, read-out: Activity
LOX IMVI = assay: Growth inhibition of human LOXIMVI cells assessed as cell growth at 10^-5 M incubated for 48 hrs by sulforhodamine B assay relative to control; conditions: read-out: Activity
786-0 = assay: Growth inhibition of human 786-0 cells assessed as cell growth at 10^-5 M incubated for 48 hrs by sulforhodamine B assay relative to control; conditions: 786-0, 48 h, read-out: Activity
HCC 2998 [2] = assay: Growth inhibition of human HCC2998 cells incubated for 48 hrs by sulforhodamine B assay; conditions: HCC 2998, 48 h
MDA-MB-435 [3] = assay: Induction of apoptosis in human MDA-MB-435 cells assessed as early apoptotic cells by propidium iodide/Annexin V staining based flow cytometry (reference value: 0.25%)
SK-MEL-2 = assay: Growth inhibition of human SK-MEL-2 cells assessed as cell growth at 10^-8 M incubated for 48 hrs by sulforhodamine B assay relative to control; conditions: SK-MEL-2, 48 h, read-out: Activity
MDA-MB-435 [4] = assay: Induction of apoptosis in human MDA-MB-435 cells assessed as live cells by propidium iodide/Annexin V staining based flow cytometry (reference value: 97.4%)
SR = assay: Growth inhibition of human SR cells assessed as cell growth at 10^-4 M incubated for 48 hrs by sulforhodamine B assay relative to control; conditions: read-out: Activity
OVCAR-4 = assay: Growth inhibition of human OVCAR4 cells incubated for 48 hrs by sulforhodamine B assay; conditions: OVCAR-4, 48 h
A549 = assay: Growth inhibition of human A549/ATCC cells assessed as cell growth at 10^-4 M incubated for 48 hrs by sulforhodamine B assay relative to control; conditions: A549, 48 h, read-out: Activity
KM12 = assay: Growth inhibition of human KM12 cells assessed as cell growth at 10^-8 M incubated for 48 hrs by sulforhodamine B assay relative to control; conditions: KM12, 48 h, read-out: Activity
SF-539 = assay: Growth inhibition of human SF539 cells incubated for 48 hrs by sulforhodamine B assay; conditions: SF-539, 48 h
SNB-75 = assay: Growth inhibition of human SNB75 cells assessed as cell growth at 10^-5 M incubated for 48 hrs by sulforhodamine B assay relative to control; conditions: SNB-75, 48 h, read-out: Activity
DU-145 = assay: Growth inhibition of human DU145 cells assessed as cell growth at 10^-8 M incubated for 48 hrs by sulforhodamine B assay relative to control; conditions: DU-145, 48 h, read-out: Activity
CCRF-CEM = assay: Growth inhibition of human CCRF-CEM cells assessed as cell growth at 10^-4 M incubated for 48 hrs by sulforhodamine B assay relative to control; conditions: read-out: Activity
NCI-H226 [5] = assay: Growth inhibition of human NCI-H226 cells assessed as cell growth at 10^-8 M incubated for 48 hrs by sulforhodamine B assay relative to control; conditions: NCI-H226, 48 h, read-out: Activity
NCI-H322M = assay: Growth inhibition of human NCI-H322M cells assessed as cell growth at 10^-6 M incubated for 48 hrs by sulforhodamine B assay relative to control; conditions: read-out: Activity
MDA-MB-435 [6] = assay: Growth inhibition of human MDA-MB-435 cells incubated for 48 hrs by sulforhodamine B assay; conditions: MDA-MB-435, 48 h
OVCAR-5 = assay: Growth inhibition of human OVCAR5 cells assessed as cell growth at 10^-7 M incubated for 48 hrs by sulforhodamine B assay relative to control; conditions: OVCAR-5, 48 h, read-out: Activity
MDA-MB-435 [7] = assay: Growth inhibition of human MDA-MB-435 cells assessed as cell growth at 10^-7 M incubated for 48 hrs by sulforhodamine B assay relative to control; conditions: MDA-MB-435, 48 h, read-out: Activity
K562 = assay: Growth inhibition of human K562 cells assessed as cell growth at 10^-8 M incubated for 48 hrs by sulforhodamine B assay relative to control; conditions: K562, 48 h, read-out: Activity
HCC 2998 [8] = assay: Growth inhibition of human HCC2998 cells assessed as cell growth at 10^-4 M incubated for 48 hrs by sulforhodamine B assay relative to control; conditions: HCC 2998, 48 h, read-out: Activity
MCF7 = assay: Growth inhibition of human MCF7 cells assessed as cell growth at 10^-6 M incubated for 48 hrs by sulforhodamine B assay relative to control; conditions: MCF7, 48 h, read-out: Activity
[9] = read-out: LC50 (the source's name)
[10] = read-out: pLC50 (the source's name) (converted)

`CCS/C(Nc1ccccc1)=C(\C#N)C(=O)N/N=C\c1ccc(Cl)cc1Cl` showed a GI50 (SK-MEL-28; read-out: GI50) of 23.6 µM, a CC50 (SK-MEL-28; [9]) of over 100 µM and a TGI (SK-MEL-28; read-out: TGI) of over 100 µM. The GI50 (SK-MEL-28; read-out: pGI50 (converted)) was 23.4 µM, the CC50 (SK-MEL-28; [10]) was over 100 µM and the TGI (SK-MEL-28; read-out: pTGI) was over 100 µM. It also gave a growth at 1 µM (Hs-578T) of 75%, a growth at 0.1 µM (NCI-H226 [1]) of 82% and an Activity (HL-60) of 2.03%. It also gave a growth at 0.1 µM (MDA-MB-231) of 97%, a growth at 0.01 µM (SNB-19) of 97% and a growth at 10 µM (OVCAR-3) of 1%. For the same molecule, the growth at 0.1 µM (HOP-62) was 85%, the growth at 10 µM (LOX IMVI) was 39% and the growth at 10 µM (786-0) was 23%. For the same molecule, the GI50 (HCC 2998 [2]; read-out: GI50) was 5.47 µM, the CC50 (HCC 2998 [2]; [9]) was over 100 µM and the TGI (HCC 2998 [2]; read-out: TGI) was over 100 µM. It also gave a GI50 (HCC 2998 [2]; read-out: pGI50 (converted)) of 5.5 µM, a CC50 (HCC 2998 [2]; [10]) of over 100 µM and a TGI (HCC 2998 [2]; read-out: pTGI) of over 100 µM. For the same molecule, the Activity (MDA-MB-435 [3]) was 2.52%, the growth at 0.01 µM (SK-MEL-2) was 106% and the Activity (MDA-MB-435 [4]) was 91.29%. For the same molecule, the growth at 100 µM (SR) was 7%, the GI50 (OVCAR-4; read-out: GI50) was 6.57 µM and the CC50 (OVCAR-4; [9]) was over 100 µM. The TGI (OVCAR-4; read-out: TGI) was over 100 µM, the GI50 (OVCAR-4; read-out: pGI50 (converted)) was 6.61 µM and the CC50 (OVCAR-4; [10]) was over 100 µM. The TGI (OVCAR-4; read-out: pTGI) was over 100 µM, the growth at 100 µM (A549) was 18% and the growth at 0.01 µM (KM12) was 101%. It also gave a GI50 (SF-539; read-out: GI50) of 2.89 µM, a CC50 (SF-539; [9]) of over 100 µM and a TGI (SF-539; read-out: TGI) of 20.6 µM. For the same molecule, the GI50 (SF-539; read-out: pGI50 (converted)) was 2.88 µM, the CC50 (SF-539; [10]) was over 100 µM and the TGI (SF-539; read-out: pTGI (converted)) was 20.4 µM. For the same molecule, the growth at 10 µM (SNB-75) was -2%, the growth at 0.01 µM (DU-145) was 105% and the growth at 100 µM (CCRF-CEM) was 11%. It also gave a growth at 0.01 µM (NCI-H226 [5]) of 90%, a growth at 1 µM (NCI-H322M) of 89% and a GI50 (MDA-MB-435 [6]; read-out: GI50) of 0.419 µM. It also gave a CC50 (MDA-MB-435 [6]; [9]) of 9.26 µM, a TGI (MDA-MB-435 [6]; read-out: TGI) of 2.23 µM and a GI50 (MDA-MB-435 [6]; read-out: pGI50 (converted)) of 0.417 µM. For the same molecule, the CC50 (MDA-MB-435 [6]; [10]) was 9.33 µM, the TGI (MDA-MB-435 [6]; read-out: pTGI (converted)) was 2.24 µM and the growth at 0.1 µM (OVCAR-5) was 96%. The growth at 0.1 µM (MDA-MB-435 [7]) was 86%, the growth at 0.01 µM (K562) was 106% and the growth at 100 µM (HCC 2998 [8]) was 35%. The growth at 1 µM (MCF7) was 83%.
